Patent publication US20160281125A1, “ANTIMICROBIAL COMPOUND SUSCEPTIBILITY TEST” (priority 2013, published 2016)

What was measured:
[1] = tested on: K. oxy 43086; assay: Selective lysis test, OD600 turbidity (Example 1); type: cell-based, Klebsiella oxytoca
Experimental: (§1) An isolated colony from an overnight Tryptocase Soy Agar (TSA) plate of each bacterial strain was suspended in 1 ml Tryptocasc Soy Broth (TSB) in a 5 ml BD polystyrene round bottom tube. TSB cultures were incubated shaking at 37° C. overnight. Ten of the overnight culture was inoculated into lml TSB and incubated shaking at 37° C. for three hours. Two […] aliquots of each log-phase culture were then transferred to two 2 ml Eppendorf microcentrifuge tubes. One tube contained 5000 of Normal Saline (BD); the second tube contained 5000 Normal Saline with meropenem at 10 μg/ml (final concentration of meropenem of 6.67 10 μg/ml). Tubes were inverted and then incubated at 37° C. stagnant for thirty minutes. Then […] of lysis buffer (0.5% SDS in PSB) (final concentration of SDS of 0.125%) was added to each tube and the tubes were vortexed for 5 seconds. Post incubation, all tubes were spun at 10000 G for 5 minutes. Supernatant was decanted and the pellet resuspended in Normal Saline. Tubes were vortexed again. OD600 was measured using Eppendorf uvettes in a spectrophotometer. The delta between the OD600 of the normal saline control and the OD600 for the test sample exposed to meropenem in normal saline was used to determine susceptibility of the bacterial strain to meropenem.

[2] = tested on: E. clo 13047; assay: Selective lysis test, OD600 turbidity (Example 1); type: cell-based, Enterobacter cloacae
Experimental: as §1

[3] = tested on: strains previously considered susceptible to meropenem; assay: Selective lysis OD600 test, summary over the strains of Table 1; type: cell-based, Enterobacteriaceae; conditions: 13 of 14 strains of Table 1
Experimental: as §1
Species abbreviations: sp. […]

[4] = tested on: K. oxy strain 43086; assay: Selective lysis test, BacUni QuickFISH staining (Example 3); type: cell-based, K. oxytoca; conditions: FIG. 4; K. oxy 43086; meropenem 10 μg/ml, 30 min, SDS lysis
Excerpt: An alternative to the spectrophotometer-based measurement of changes in turbidity for measuring cell lysis following treatment with the cell lysis conditions in Examples 1 and 2 is to stain samples using a stain that distinguishes between intact cells and lysed cells. In this example staining with BacUni QuickFISH™ was used to identify intact (i.e., non-lysed) cells. BacUN1 is a universal bacteria PNA probe that binds to an rRNA sequence present in most Gram-positive and Gram-negative bacteria. The PNA probe binds to universal rRNA in intact bacterial cells and the entire cell will appears green with fluorescent microscopy. If the bacterial cell had been lysed then the rRNA target would have been released from the bacterial cell and even of somewhat labeled it would not appear as a fluorescent bacterial cell.
An isolated colony from an overnight Tryptocase Soy Agar (TSA) plate of each bacteria was suspended in 1 ml Tryptocase Soy Broth (TSB) in a 5 ml BD polystyrene round bottom tube. TSB cultures were incubated at 37° C. overnight. Ten μl of overnight culture was inoculated into 1 ml TSB and incubated shaking at 37° C. for three hours. Two 250 μl aliquots of each log-phase culture was transferred to two 2 ml Eppendorf microcentrifuge tubes. […] The slide was viewed on fluorescence microscope using 60× oil immersion on Dual TxR/FITC. […]

[5] = tested on: E. coli BAA-197 (ESBL); assay: Selective lysis test, OD600, meropenem and cefotaxime (Example 2); type: cell-based
Experimental: In this experiment the following strains were tested: strain K. pneumoniae 13882 (previously considered meropenem sensitive and cefotaxime sensitive); E. coli BAA-197 (ESBL) (which expresses an extended-spectrum (beta)-lactamase enzyme and was previously considered meropenem sensitive and cefotaxime resistant); K. pneumoniae BAA-1705 (KPC) (which expresses a carbapenemase enzyme and was previously considered meropenem resistant and cefotaxime resistant); and K. pneumoniae BAA-2146 (NDM1) (which expresses the metallo-beta-lactamase-1 enzyme and was previously considered meropenem resistant and cefotaxime resistant).
An isolated colony from an overnight Tryptocase Soy Agar (TSA) plate of each bacteria was suspended in 1 ml Tryptocase Soy Broth (TSB) in a 5 ml BD polystyrene round bottom tube. TSB cultures were incubated at 37° C. for 1.5 hours shaking. Three 250 μl aliquots of each stationary-phase culture were then transferred to three 2 ml Eppendorf microcentrifuge tubes. One tube contained 500 μl of Normal Saline (BD); the second tube contained 500 μl Normal Saline with meropenem at 10 μg/ml; and the third tube contained 500 μl Normal Saline with cefotaxime (abbreviated […]) at 10 μg/ml. Tubes were inverted then incubated at 37° C. stagnant for thirty minutes. Then […] of lysis buffer (0.5% SDS in PSB) was added to each tube and each tube was vortexed for 5 seconds. Post incubation, all tubes were spun at 10000 G for 5 minutes. Supernatant was decanted and the pellet resuspended in Normal Saline. Tubes were vortexed. OD600 was measured using Eppendorf uvettes in a spectrophotometer. The delta between the control and the meropenem normal saline, or the control and the cefotaxime normal saline was used to determine susceptibility.

[6] = tested on: E. coli ESBL Baa197; assay: Selective lysis test, OD600 turbidity (Example 1); type: cell-based, Escherichia coli; conditions: for % Change: OD600 vs control without meropenem
Experimental: as §1

[7] = tested on: E. coli ESBL 790; assay: Selective lysis test, OD600 turbidity (Example 1); type: cell-based, Escherichia coli
Experimental: as §1

[8] = tested on: E. coli JM109; assay: Selective lysis test, OD600 turbidity (Example 1); type: cell-based, Escherichia coli
Experimental: as §1

[9] = tested on: strains previously considered resistant to meropenem; assay: Selective lysis OD600 test, summary over the strains of Table 2; type: cell-based, Klebsiella pneumoniae, Klebsiella oxytoca; conditions: 8 of the 9 strains of Table 2
Experimental: as §1, with “meropenem. […]” for “meropenem.”

[10] = OD600 vs control without meropenem
[11] = meropenem 10 μg/ml, 30 min, SDS lysis buffer + vortex

## C[C@@H](O)[C@H]1C(=O)N2C(C(=O)O)=C(S[C@@H]3CN[C@H](C(=O)N(C)C)C3)[C@H](C)[C@H]12 [meropenem]
[1]
  R or S: S (a percentage change of greater than about 85% indicates a strain is susceptible)
[1]; [10]
  % Change: 99%
[1]; [11]
  Mero OD600: 0.02
[2]
  R or S: S (a percentage change of greater than about 85% indicates a strain is susceptible)
[2]; [10]
  % Change: 95%
[2]; [11]
  Mero OD600: 0.06
[3]
  decrease of OD600 turbidity vs negative control: at least 88%
[4]
  number of BacUni QuickFISH stained cells, treated vs not treated: significant reduction in the number of stained cells
[5]
  assay score (sensitive or resistant): sensitive
[5]; OD600 vs control
  % diff: 87.3%
[5]; antibiotic 10 μg/ml, 30 min, SDS lysis buffer + vortex, 1.5 h culture
  OD600: 0.046
[6]
  R or S: S (a percentage change of greater than about 85% indicates a strain is susceptible)
  % Change: 74%
[6]; listed as Mero
  % Change: 74%
[6]; [11]
  Mero OD600: 0.236
[7]
  R or S: S (a percentage change of greater than about 85% indicates a strain is susceptible)
[7]; [10]
  % Change: 87%
[7]; [11]
  Mero OD600: 0.126
[8]
  R or S: S (a percentage change of greater than about 85% indicates a strain is susceptible)
[8]; [10]
  % Change: 88%
[8]; [11]
  Mero OD600: 0.079
[9]
  decrease of OD600 turbidity vs negative control: ≤ 18%
